PubChem BioAssay AID608 (Sanford-Burnham Center for Chemical Genomics, 2007)
Activity calls are given as the source filed them. No rule for the calls is given here.

biological target: Peptidyl-prolyl cis-trans isomerase FKBP1A (Homo sapiens) (UniProt P62942); experiment: small-molecule binding to FKBP12 – biophysical, NMR detection (AID 608); conditions: purified FKBP12
Sequence (P62942 whole entry, looked up): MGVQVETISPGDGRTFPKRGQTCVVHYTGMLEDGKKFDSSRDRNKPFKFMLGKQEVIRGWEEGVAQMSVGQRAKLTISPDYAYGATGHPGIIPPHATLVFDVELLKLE

SMILES | Kd
NC(=O)Cn1cnc(-c2ccc(F)cc2)c1 | > 4 mM (inactive)
COC(=O)c1c(SC)nc(-c2ccccc2)[nH]c1=O | > 4 mM (inactive)
C=C(C)[C@H]1COc2cc3oc(=O)ccc3cc2O1 | > 4 mM (inactive)
Nc1cc(=O)[nH]c(SCC(=O)Nc2nccs2)n1 | > 4 mM (inactive)
Cc1cc(C(=O)Nc2nnc(C(F)(F)F)s2)no1 | > 4 mM (inactive)
Cn1c(=O)c2c([nH]c(=O)n2C)n(C)c1=O | > 4 mM (inactive)
Cc1nc2ccccc2c(=O)n1-c1cccc(O)c1 | > 4 mM (inactive)
O=[N+]([O-])c1cccc(-c2c[n+](=O)c3c(n2[O-])CCC3)c1 | > 4 mM (inactive)
S=c1[nH]nc(-c2cccnc2)n1Cc1ccccc1 | > 4 mM (inactive)
O=C(O)c1cn(-c2ccccc2)nc1-c1cccnc1 | > 4 mM (inactive)
O=[n+]1cc(C2=CC=CCC2)n([O-])c2c1CCCCC2 | > 4 mM (inactive)
O=C(Nc1nnc(C(F)(F)F)s1)c1cccnc1 | > 4 mM (inactive)
CC(=O)c1cc(C)ccc1O | > 4 mM (inactive)
C[C@@H]1CCC2[C@](C)(CO)[C@@H](O)CC[C@]2(C)[C@@]12CC[C@@](CO)(CCO)O2 (stereo partly drawn) | > 4 mM (inactive)
CC12CN(CC#N)CC(C)(CN(CC#N)C1)C2=O | > 4 mM (inactive)
c1ccc(SCc2nc(-c3cccnc3)no2)cc1 | > 4 mM (inactive)
Cc1cccc(-c2nnc(-c3ccc(N)cc3)o2)c1 | > 4 mM (inactive)
O=C(O)c1csc(-c2cccnc2)n1 | > 4 mM (inactive)
Cc1c(C(=O)Nc2cnccn2)oc2ccccc12 | > 4 mM (inactive)
CCC[C@H]1CC2=C(C[C@@H](CC)CC3=C1C(=O)OC3=O)C(=O)OC2=O | > 4 mM (inactive)
COc1ccc(-c2cc(=O)c3ccccc3o2)cc1OC | > 4 mM (inactive)
c1ccc(Cc2nn3c(-c4ccncc4)nnc3s2)cc1 | > 4 mM (inactive)

SMILES | Kd
CCOC(=O)Cc1nc2ccccc2[nH]1 | > 4 mM (inactive)
CS(=O)(=O)c1cccc(C(=O)Nc2nccs2)c1 | > 4 mM (inactive)
O=C(COc1ccccc1F)N1CCOCC1 | inactive
Nc1n[nH]c(=S)n1-c1ccccc1 | > 4 mM (inactive)
c1ccc(Cn2c(Nn3cnnc3)nc3ccccc32)cc1 | > 4 mM (inactive)
Nc1ncnc(NCc2cccnc2)c1[N+](=O)[O-] | > 4 mM (inactive)
CC1=CC(C)C(C(=O)O)C(C(=O)N2CCN(C)CC2)C1 (stereo not drawn) | > 4 mM (inactive)
CCc1c(C(=O)N2CCOCC2)csc1C | > 4 mM (inactive)
CNC(=S)Nc1ccc2c(c1)OCO2 | > 4 mM (inactive)
Cn1nc(C(=O)NCc2cccnc2)c2ccccc2c1=O | > 4 mM (inactive)
CN1CCN(c2nc3c(c(=O)[nH]2)CCCC3)CC1 | > 4 mM (inactive)
COc1cc(OC)c(OC)cc1C=O | > 4 mM (inactive)
O=C(NN1CCOCC1)c1ccccc1F | > 4 mM (inactive)
COC(=O)C1=C(C)N(c2cccc(C(C)=O)c2)C(=O)C1 | > 4 mM (inactive)
CN(c1ccccc1C(=O)N1CCCC1)S(C)(=O)=O | > 4 mM (inactive)
O=C1c2ccncc2C(=O)N1CO | > 4 mM (inactive)
CC1C[C@H]2CC(=O)[C@H]3CCCN4CCC[C@H]2[C@]34C1 (stereo partly drawn) | > 4 mM (inactive)
C[C@@H]1CC[C@]2(C(=O)O)CC[C@]3(C)C(=CCC4[C@@]5(C)CC[C@H](O)C(C)(C)C5CC[C@]43C)C2[C@H]1C (stereo partly drawn) | > 4 mM (inactive)
Cc1cc(C(=O)N2CCN(c3ncccn3)CC2)c(C)o1 | > 4 mM (inactive)
C/C1=C/CC(C)(C)/C=C/C/C(C)=C/CC1 | > 4 mM (inactive)
Cc1cc(C)n(CCCC(=O)O)n1 | > 4 mM (inactive)
O=C(O)CCC(=O)Nc1nccs1 | > 4 mM (inactive)

SMILES | Kd
Nc1cccc(-n2cnnn2)c1 | > 4 mM (inactive)
Cc1occc1C(=O)NCc1ccccn1 | > 4 mM (inactive)
CC(=O)NC1(NC(C)=O)CCN(C)CC1 | > 4 mM (inactive)
Cc1ccc(NC(=O)CN2C(=O)CSC2=O)cc1 | > 4 mM (inactive)
Nc1cccnc1N1CCOCC1 | > 4 mM (inactive)
CC(=O)Nc1ccn(Cc2c(F)cccc2Cl)n1 | > 4 mM (inactive)
O=C1NNC(=O)C2C3c4ccccc4C(c4ccccc43)C12 (stereo not drawn) | > 4 mM (inactive)
Cc1ccc(N2CCN(C(=O)c3ccccc3)CC2)c(C)c1 | > 4 mM (inactive)
CN(C)c1ccc(/C=C2/NC(=S)NC2=O)cc1 | > 4 mM (inactive)
O=C(O)/C=C(\CC(=O)O)C(=O)O | > 4 mM (inactive)
COc1cc2occc2c2oc(=O)ccc12 | > 4 mM (inactive)
Cc1cc2ncc(C(=O)O)c(C)n2n1 | > 4 mM (inactive)
CCn1cnc2scc(-c3ccccc3)c2c1=O | > 4 mM (inactive)
Nc1nc2ccc(N3CCOCC3)cc2s1 | > 4 mM (inactive)
CC(=O)Nc1nc2c(s1)C(=O)NCCC2 | > 4 mM (inactive)
O=c1c2c(nc3nc(COc4ccccc4)[nH]n13)CCC2 | > 4 mM (inactive)
c1ccc(C[N+]23CCN(CC2)CC3)cc1 | > 4 mM (inactive)
Clc1ccccc1OCc1nc(-c2ccccn2)no1 | > 4 mM (inactive)
COc1cc2nc(-c3cccs3)oc(=O)c2cc1OC | > 4 mM (inactive)
Cc1occc1C(=O)Nc1nnc(C(F)(F)F)s1 | > 4 mM (inactive)
Nc1nc2n(c1C(=O)c1ccccc1)CCC2 | > 4 mM (inactive)
Cc1sc2nc(NCCO)[nH]c(=O)c2c1C | > 4 mM (inactive)

SMILES | Kd
CN1CCCC1C(=O)O (stereo not drawn) | > 4 mM (inactive)
Cn1cnnc1Sc1ncnc(N)c1[N+](=O)[O-] | > 4 mM (inactive)
CSc1nc(O)cc(=O)[nH]1 | > 4 mM (inactive)
O=C(O)[C@H](O)[C@@](O)(Cc1ccc(O)cc1)C(=O)O | > 4 mM (inactive)
NC(=O)NC(=O)Nc1ccc(Cl)cc1 | > 4 mM (inactive)
O=C(NC12CC3CC(CC(C3)C1)C2)c1cnccn1 | > 4 mM (inactive)
O=C(Oc1ccc2c(c1)OCC2=O)c1ccccc1 | > 4 mM (inactive)
Cc1cccc(C)c1NC(=O)/C=C/C(=O)O | > 4 mM (inactive)
Nc1ncnc2nc(SCCN3CCCCC3)[nH]c12 | > 4 mM (inactive)
COC(=O)c1scc(C)c1N | > 4 mM (inactive)
NC(=O)/C=C/C(=O)Nc1ccccc1 | > 4 mM (inactive)
NC(=O)CSc1nnc2ccc3ccccc3n12 | > 4 mM (inactive)
NNC(=O)c1ccccc1-n1cccc1 | > 4 mM (inactive)
O=c1[nH]cc(N2CCCCC2)c(=O)[nH]1 | > 4 mM (inactive)
CC(=O)C1CCC2C3CCC4C[C@H](O)CCC4(C)C3C[C@H](O)C12C (stereo partly drawn) | > 4 mM (inactive)
O=C1C2CC=CCC2C(=O)N1c1ccccc1 (stereo not drawn) | 0.0261 mM
Cc1nnc(SCC(=O)NCc2ccccc2)[nH]c1=O | > 4 mM (inactive)
Cn1cnc2c(cnn2-c2ccccc2)c1=O | > 4 mM (inactive)
O=C(O)c1ccnc2ccccc12 | > 4 mM (inactive)
NC(=O)C1CCN(C(=O)Nc2ccccc2)CC1 | > 4 mM (inactive)
O=C(O)/C=C/C(=O)Nc1ccccc1C(F)(F)F | > 4 mM (inactive)
Cn1c(=O)c2c(ncn2C)n(C)c1=O | > 4 mM (inactive)
